Experimental data: article PMC8056384 (ACS Chemical Biology, 2021)
Several values for one entry are separate records, joined by “and”; a condition that tells them apart may be missing. Equal values may be shown once.

Columns and labels:
[1] = target: T1, hGALK1 (Homo sapiens, UniProt P51570, E253A/K252A); experiment: Kinase-Glo luminescent hGALK1 activity assay; format: biochemical; design: Vmaxapp, substrate galactose, with ligand (+) / Kmapp, substrate galactose, with ligand (+): unit not given here; details: for Kmapp, substrate galactose, with ligand (+) / Vmaxapp, substrate galactose, with ligand (+): 35 µM ATP, maximum tested concentration: 1 mM T1, 15 mM fragment 3, 2 mM 11–13; for mode of inhibition with respect to galactose: 0–250 μM galactose, best-fit model in GraphPad Prism; for inhibition at 2000 µM: 2 mM compound; for Kinase-Glo LLEAT: calculated cumulatively over N1 and N2
T1 construct: A hGALK1 construct, encoding full-length protein harboring the surface entropy[41] mutations K252A:E253A; His6 (N); made in house; host or cells: E. coli BL21(DE3)
Method: hGALK1 activity in vitro was determined using the Kinase-Glo luminescent kinase assay (Promega), according to the manufacturer’s protocol. […] Following a 1-h RT incubation, 10 μL of Kinase-Glo Plus detection reagent was added (final assay volume: 20 μL/well), and after a further 20 minutes RT incubation, luminescence was detected using a Pherastar FSX plate reader (BMG Labtech) containing a luminescence optics module. […] All reactions were performed in technical triplicates for two different preparations of hGALK1.
Data were plotted using GraphPad Prism software; curve fitting was performed with a nonlinear least-squares regression fit to the mixed, competitive, noncompetitive, and uncompetitive inhibition models from the GraphPad Prism enzyme kinetics–inhibition equations and the best fit selected by comparison of Akaike’s Information Criterion (AICc) probability scores and extra sum-of-squares F test P values calculated by the software.

[2] = target: T1, hGALK1; experiment: Amplex Red fluorescence-based hGALK1 activity assay (coupled with galactose oxidase); format: biochemical; design: Vmaxapp, substrate ATP, with ligand (+) / Kmapp, substrate ATP, with ligand (+): unit not given here; details: for Kmapp, substrate ATP, with ligand (+) / Vmaxapp, substrate ATP, with ligand (+): 50 µM galactose, maximum tested concentration: 1 mM T1, 15 mM fragment 3, 2 mM 11–13; for mode of inhibition with respect to ATP: 50 μM galactose, 0–250 μM ATP, best-fit model in GraphPad Prism; for inhibition at 2000 µM: 2 mM compound; for Amplex Red LLEAT: calculated cumulatively over N1 and N2
Excerpt: Consequently, to confirm the mode of inhibition of the spiro-benzoxazole inhibitors with respect to ATP, we adopted the Amplex Red fluorescence-based assay[33],[34] by coupling the hGALK1 reaction with D. dendroides galactose oxidase (GAO; EC 1.1.3.9) to measure the level of galactose remaining after being depleted as a substrate for hGALK1. In this method, hydrogen peroxide generated by the oxidation of galactose by GAO is used by horseradish peroxidase to convert the nonfluorescent substrate Amplex Red into its highly fluorescent product resorufin; therefore, the resultant fluorescent signal is inversely proportional to hGALK1 enzyme activity. We optimized several parameters of this assay to allow measurement of hGALK1 activity for the first time (Figure S3; Supplementary Results).
The Amplex Red assay reagent contained horseradish peroxidase (EC 1.11.1.7, 0.2 U/mL), its substrate Amplex Red (10-acetyl-3,7-dihydroxyphenoxazine, 100 μM), and galactose oxidase (EC 1.1.3.9, 4 U/mL). The assay buffer used was the same as in the Kinase-Glo assay. […] Amplex Red reagent was added at a 1:1 volume to the hGALK1 reaction after 1-h incubation at RT. Fluorescence emission was measured at 585 nm, with excitation at 570 nm, after a further incubation period of 40 minutes, using a Pherastar FSX plate reader with a FI 540 590 optics module. Reactions were performed in technical triplicates for two biological replicates, and data were plotted and fitted as described for the Kinase-Glo assay except that the reaction rate, defined as total galactose consumed over the 1-h hGALK1 reaction, was determined using the following equation, where Fluorreaction = mean value of measured fluorescence of each reaction and Fluor50 = measured fluorescence with no galactose (i.e., fluorescence of 50 μM galactose): [drawing 2]

[3] = target: T1, hGALK1; experiment: Surface plasmon resonance (SPR) binding assay; details: hGALK1 immobilized on CM5 chip, analyte 0.195–200 μM, n = 1
Method: Purified hGALK1 (30 μg/mL), diluted in acetate buffer at pH 5, was attached via covalent coupling to a density of 13000 RU on a CM5 chip. The assay buffer was 50 mM sodium phosphate, pH 7.5, 200 mM NaCl, 0.5 mM TCEP, 5% DMSO, and 0.05% TWEEN20. A serial dilution (11 concentrations) was prepared in the above buffer for each analyte (3, 11–13) by 1:1 dilution from 200 μM to 0.195 μM, and the subsequent solutions were passed over the chip at a flow rate of 30 μL/min. Data are from an n = 1 experiment.

[4] = target: T2, hGALK2 (Homo sapiens, UniProt Q01415); experiment: Kinase-Glo hGALK2 activity assay; format: biochemical; details: 1 mM compound
T2 construct: Constructs encoding full-length hGALK2 (Met1-Ala458) and hMVK (Met1-Leu396); His6-Strep-Strep tag followed by TEV protease cleavage site (N); made in house; host or cells: E. coli BL21(DE3)
T2 sequence (Q01415 1-458): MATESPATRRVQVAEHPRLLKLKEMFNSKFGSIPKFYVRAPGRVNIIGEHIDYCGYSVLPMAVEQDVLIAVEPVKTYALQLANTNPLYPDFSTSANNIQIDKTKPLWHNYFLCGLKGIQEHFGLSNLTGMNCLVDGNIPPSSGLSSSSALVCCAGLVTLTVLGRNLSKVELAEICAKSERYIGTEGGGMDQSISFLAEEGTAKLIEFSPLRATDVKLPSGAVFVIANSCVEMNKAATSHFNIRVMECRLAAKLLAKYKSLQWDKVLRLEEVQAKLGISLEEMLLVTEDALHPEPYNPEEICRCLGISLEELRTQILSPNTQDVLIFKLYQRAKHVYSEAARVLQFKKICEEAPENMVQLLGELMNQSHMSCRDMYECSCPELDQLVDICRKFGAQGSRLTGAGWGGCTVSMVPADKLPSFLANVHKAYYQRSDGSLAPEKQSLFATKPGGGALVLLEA
Method: (§1) hGALK1 activity in vitro was determined using the Kinase-Glo luminescent kinase assay (Promega), according to the manufacturer’s protocol. […] Similarly, hGALK2 activity and inhibition was measured with reactions containing 50 nM hGALK2, 100 μM N-acetylgalactosamine, and 35 μM ATP in the above-described buffer and hMVK activity and inhibition was measured with reactions containing 250 nM hMVK, 100 μM mevalonate, and 35 μM ATP in the above-described buffer. Following a 1-h RT incubation, 10 μL of Kinase-Glo Plus detection reagent was added (final assay volume: 20 μL/well), and after a further 20 minutes RT incubation, luminescence was detected using a Pherastar FSX plate reader (BMG Labtech) containing a luminescence optics module. To determine the inhibition mode with respect to galactose, 10 nM hGALK1 and 35 μM ATP in an assay buffer was added to an array of six fragment (0–15 mM) or 12 compound (0–2 mM) concentrations against six galactose concentrations (0–250 μM), with a final reaction volume of 10 μL/well dispensed into 384-well assay plates (Greiner), and measured as described above. All reactions were performed in technical triplicates for two different preparations of hGALK1. Reaction rate, defined as total ATP consumed over the 1-h hGALK1 reaction, was determined using the following equation, where Lumreaction = mean value of measured luminescence of each reaction and Lum35 = measured luminescence with no galactose (i.e., luminescence of 35 μM ATP): [drawing 1]

[5] = target: T3, hMVK (Homo sapiens, UniProt Q03426); experiment: Kinase-Glo hMVK activity assay; format: biochemical; details: 1 mM compound
T3 construct: Constructs encoding full-length hGALK2 (Met1-Ala458) and hMVK (Met1-Leu396); His6-Strep-Strep tag followed by TEV protease cleavage site (N); made in house; host or cells: E. coli BL21(DE3)
Method: as §1

[6] = biological replicate N1, read-out: Kinase-Glo N1 IC50
[7] = biological replicate N2, read-out: Kinase-Glo N2 IC50
[8] = range over Kinase-Glo and Amplex Red assays
[9] = range over Kinase-Glo and Amplex Red assays, two biological replicates, read-out: IC50 values, range
[10] = biological replicate N1, read-out: Amplex Red N1 IC50
[11] = biological replicate N2, read-out: Amplex Red N2 IC50
[12] = concentration achieving 50% inhibition, IC50 not determinable, lower potency

T1 sequence (P51570 whole entry K252A/E253A, the tested form may be a part): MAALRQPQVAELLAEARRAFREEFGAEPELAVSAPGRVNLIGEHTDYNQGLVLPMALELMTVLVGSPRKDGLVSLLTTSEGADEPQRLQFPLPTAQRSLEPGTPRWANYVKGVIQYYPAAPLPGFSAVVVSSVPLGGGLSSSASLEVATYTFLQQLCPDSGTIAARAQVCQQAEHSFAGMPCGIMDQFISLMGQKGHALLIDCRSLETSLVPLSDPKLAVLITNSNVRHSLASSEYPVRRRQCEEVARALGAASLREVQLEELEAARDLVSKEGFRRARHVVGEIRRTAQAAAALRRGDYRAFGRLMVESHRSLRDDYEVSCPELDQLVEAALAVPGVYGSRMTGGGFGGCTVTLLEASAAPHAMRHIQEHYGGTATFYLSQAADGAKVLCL
T3 sequence (Q03426 whole entry): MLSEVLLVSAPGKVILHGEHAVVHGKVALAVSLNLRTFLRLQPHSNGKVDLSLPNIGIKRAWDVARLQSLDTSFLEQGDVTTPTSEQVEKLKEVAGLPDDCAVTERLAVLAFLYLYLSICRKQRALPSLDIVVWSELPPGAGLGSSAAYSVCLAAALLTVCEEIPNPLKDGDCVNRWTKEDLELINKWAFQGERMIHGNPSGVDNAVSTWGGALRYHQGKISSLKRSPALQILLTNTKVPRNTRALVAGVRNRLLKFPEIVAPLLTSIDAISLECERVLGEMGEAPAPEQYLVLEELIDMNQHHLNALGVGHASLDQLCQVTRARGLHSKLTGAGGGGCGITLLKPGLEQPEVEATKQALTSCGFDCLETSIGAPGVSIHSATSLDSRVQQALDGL

SMILES | Kmapp, substrate galactose, with ligand (+) [1] | Vmaxapp, substrate galactose, with ligand (+) [1] | Kmapp, substrate ATP, with ligand (+) [2] | Vmaxapp, substrate ATP, with ligand (+) [2] | mode of inhibition with respect to galactose ([1]; 35 μM ATP) | mode of inhibition with respect to ATP [2] | inhibition at 2000 µM [1] [%] | IC50 [1, 6] [µM] | IC50 [1, 7] [µM] | Kinase-Glo LLEAT [1] [kcal/mol] | LLEAT (Astex ligand lipophilicity efficiency score), range [1, 8] [kcal/mol] | IC50 [1, 9] [µM] | inhibition at 2000 µM [2] [%] | IC50 [2, 10] [µM] | IC50 [2, 11] [µM] | Amplex Red LLEAT [2] [kcal/mol] | Kd [3] | inhibition at 1000 µM [4] [%] | inhibition at 1000 µM [5] [%] | other results
O=C1CCCC2=C1C1(CCCC1)N=C(Nc1nc3ccccc3o1)N2 [T1, 2′-(benzo[d]oxazol-2-ylamino)-7′,8′-dihydro-1′H-spiro[cyclopentane-1,4′-quinazolin]-5′(6′H)-one, reference compound] | 32.9 ± 1.0 | 4.1 ± 0.5 | 63.5 ± 2.6 | 27.9 ± 1.5 | – | – | – | – | – | – | – | – | – | – | – | – | – | – | – | –
O=C1CCCC2=C1C1(CCCCC1)N=C(Nc1nc3ccccc3o1)N2 [T2, 2′-(benzo[d]oxazol-2-ylamino)-7′,8′-dihydro-1′H-spiro[cyclohexane-1,4′-quinazolin]-5′(6′H)-one, reference compound] | – | – | – | – | non-competitive | competitive | – | – | – | – | – | – | – | – | – | – | – | – | – | IC50 ([1]; 10 nM hGALK1, 100 μM galactose, 35 μM ATP, read-out: IC50): 17 µM
O=C(CNc1cnc2cc(Cl)c(Cl)cc2n1)NC1CC1 [compound 11] | 36.5 ± 2.1 | 3.7 ± 0.4 | 36.5 ± 5.8 | 11.1 ± 0.9 | noncompetitive | noncompetitive | > 50 | 209 | 116 | 0.19 | 0.19 to 0.22 | 31 to 209 | > 50 | 31 | 65 | 0.22 | ~100 µM and 89 µM | < 10 | < 10 | –
COCCNC(=O)CNc1cnc2cc(Cl)c(Cl)cc2n1 [compound 12] | 41.5 ± 12.4 | 9.4 ± 1.1 | 40.4 ± 4.7 | 11.8 ± 0.2 | noncompetitive | noncompetitive | > 50 | 198 | 96 | 0.23 | 0.23 to 0.27 | 25 to 198 | > 50 | 45 | 25 | 0.27 | ~100 µM and 97 µM | < 10 | < 10 | –
COc1ccc(Cl)cc1C(=O)NC1CCN(c2ncccn2)CC1 [compound 13] | 143.6 ± 7.6 | 4.4 ± 0.4 | 46.5 ± 4.5 | 14.7 ± 3.0 | mixed | noncompetitive | > 50 | – | – | – | – | – | > 50 | – | – | – | ~200 µM and ~203 µM | < 10 | < 10 | IC50 [1, 12]: ~1000 µM; IC50 [2, 12]: ~1000 µM
CCOC(=O)C1CCN(c2cnccn2)CC1 [fragment 1] | – | – | – | – | – | – | – | – | – | – | – | – | – | – | – | – | – | – | – | change in hGALK1 activity, strictly standardized mean difference (SSMD) ([1]; 5 mM fragment): < 0.5
